Source: the supplement of paper PMC10307832

How the values were obtained:
Experiment in all cases: relative viability (nuclei count vs DMSO), 5 days (fraction); higher = more cells survive
Bexarotene + Trametinib = compound: C=C(c1ccc(C(=O)O)cc1)c1cc2c(cc1C)C(C)(C)CCC2(C)C [Bexarotene] + CC(=O)Nc1cccc(-n2c(=O)n(C3CC3)c(=O)c3c(Nc4ccc(I)cc4F)n(C)c(=O)c(C)c32)c1 [Trametinib] (partner 0.02 µM)
In short: (§1)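 Lung cancer cell lines in 1536-well plates got either a single drug or a fixed anchor-drug dose together with five library-drug doses (not always all listed) in √10 steps, by pin tool, on the day after seeding. Nuclei were counted after 5 days, and relative viability is the treated-to-vehicle ratio of nuclei counts. Values are medians of duplicate plates.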

Bexarotene + Phenformin = compound: C=C(c1ccc(C(=O)O)cc1)c1cc2c(cc1C)C(C)(C)CCC2(C)C [Bexarotene] + N=C(N)NC(=N)NCCc1ccccc1 [Phenformin] (partner 250 µM)
In short: as §1

Bexarotene + Pemetrexed = compound: C=C(c1ccc(C(=O)O)cc1)c1cc2c(cc1C)C(C)(C)CCC2(C)C [Bexarotene] + Nc1nc2[nH]cc(CCc3ccc(C(=O)N[C@@H](CCC(=O)O)C(=O)O)cc3)c2c(=O)[nH]1 [Pemetrexed] (partner 0.2 µM)
In short: as §1

Bexarotene + Navitoclax = compound: C=C(c1ccc(C(=O)O)cc1)c1cc2c(cc1C)C(C)(C)CCC2(C)C [Bexarotene] + CC1(C)CCC(c2ccc(Cl)cc2)=C(CN2CCN(c3ccc(C(=O)NS(=O)(=O)c4ccc(N[C@H](CCN5CCOCC5)CSc5ccccc5)c(S(=O)(=O)C(F)(F)F)c4)cc3)CC2)C1 [Navitoclax] (partner 0.5 µM)
In short: as §1

Cell Line | relative viability (Bexarotene + Trametinib; first compound 0.08 µM) | relative viability (Bexarotene + Trametinib; first compound 0.253 µM) | relative viability (Bexarotene + Trametinib; first compound 0.8 µM) | relative viability (Bexarotene + Trametinib; first compound 2.53 µM) | relative viability (Bexarotene + Trametinib; first compound 8 µM) | relative viability (Bexarotene + Phenformin; first compound 0.08 µM) | relative viability (Bexarotene + Phenformin; first compound 0.253 µM) | relative viability (Bexarotene + Phenformin; first compound 0.8 µM) | relative viability (Bexarotene + Phenformin; first compound 2.53 µM) | relative viability (Bexarotene + Phenformin; first compound 8 µM) | relative viability (Bexarotene + Pemetrexed; first compound 0.08 µM) | relative viability (Bexarotene + Pemetrexed; first compound 0.253 µM) | relative viability (Bexarotene + Pemetrexed; first compound 0.8 µM) | relative viability (Bexarotene + Pemetrexed; first compound 2.53 µM) | relative viability (Bexarotene + Pemetrexed; first compound 8 µM) | relative viability (Bexarotene + Navitoclax; first compound 0.08 µM) | relative viability (Bexarotene + Navitoclax; first compound 0.253 µM) | relative viability (Bexarotene + Navitoclax; first compound 0.8 µM) | relative viability (Bexarotene + Navitoclax; first compound 2.53 µM) | relative viability (Bexarotene + Navitoclax; first compound 8 µM)
NCI-H2087 | 0.21 | 0.166 | 0.175 | 0.148 | 0.171 | 0.527 | 0.475 | 0.451 | 0.433 | 0.435 | 0.681 | 0.743 | 0.696 | 0.652 | 0.549 | 1.11 | 0.944 | 1.1 | 0.848 | 0.759
LU99A | 0.659 | 0.531 | 0.608 | 0.52 | 0.417 | 1.24 | 0.89 | 0.862 | 0.829 | 0.912 | 0.19 | 0.194 | 0.206 | 0.189 | 0.171 | 0.931 | 0.828 | 0.826 | 0.895 | 0.89
NCI-H1355 | 0.468 | 0.445 | 0.373 | 0.479 | 0.457 | 0.467 | 0.481 | 0.433 | 0.404 | 0.447 | 1.14 | 1.15 | 0.983 | 1.13 | 1.01 | 1.03 | 0.998 | 0.928 | 1.17 | 0.84
NCI-H520 | 0.668 | 0.63 | 0.742 | 0.662 | 0.643 | 0.643 | 0.485 | 0.514 | 0.445 | 0.417 | 0.799 | 0.663 | 0.717 | 0.797 | 0.708 | 1.14 | 1.11 | 1.03 | 1.14 | 0.993
NCI-H661 | 0.58 | 0.523 | 0.544 | 0.543 | 0.495 | 0.314 | 0.296 | 0.261 | 0.283 | 0.272 | 1.05 | 0.91 | 0.892 | 0.872 | 0.869 | – | – | – | – | –
NCI-H650 | 1.17 | 0.957 | 1.02 | 0.972 | 0.957 | 0.486 | 0.518 | 0.472 | 0.39 | 0.439 | 1.09 | 0.887 | 0.882 | 0.832 | 0.918 | – | – | – | – | –
NCI-H647 | 0.663 | 0.46 | 0.335 | 0.433 | 0.44 | 0.588 | 0.472 | 0.519 | 0.53 | 0.43 | 0.177 | 0.155 | 0.153 | 0.157 | 0.174 | 1.32 | 1.35 | 1.2 | 1.15 | 1.1
201T | 0.751 | 0.724 | 0.713 | 0.704 | 0.643 | 0.582 | 0.516 | 0.5 | 0.519 | 0.458 | 0.385 | 0.295 | 0.322 | 0.355 | 0.347 | 1.22 | 1.21 | 1.23 | 1.2 | 1.12
NCI-H838 | 0.551 | 0.611 | 0.545 | 0.657 | 0.585 | 0.585 | 0.595 | 0.504 | 0.608 | 0.634 | 0.275 | 0.254 | 0.272 | 0.251 | 0.249 | 1.13 | 1.33 | 1.23 | 1.32 | 1.22
SW 1573 | 0.546 | 0.507 | 0.538 | 0.502 | 0.456 | 0.374 | 0.328 | 0.332 | 0.273 | 0.297 | 0.911 | 0.814 | 0.897 | 0.751 | 0.847 | 1.07 | 0.777 | 0.731 | 0.735 | 0.598
PC-14 | 0.708 | 0.901 | 0.961 | 0.818 | 0.821 | 0.611 | 0.61 | 0.523 | 0.435 | 0.522 | 0.127 | 0.144 | 0.145 | 0.145 | 0.16 | 1.12 | 1.11 | 0.948 | 0.841 | 0.809
LK-2 | 0.838 | 0.895 | 0.779 | 0.719 | 0.915 | 1.15 | 0.506 | 0.381 | – | 0.47 | 0.353 | 0.292 | 0.285 | 0.275 | 0.238 | 1.1 | 0.782 | 0.935 | 0.944 | 0.802
COR-L23 | 0.747 | 0.72 | 0.501 | 0.553 | 0.547 | 0.411 | 0.512 | 0.395 | 0.383 | 0.364 | 0.198 | 0.206 | 0.198 | 0.214 | 0.202 | 0.98 | 1.12 | 0.847 | 0.916 | 0.879
NCI-H1944 | 0.526 | 0.517 | 0.465 | 0.47 | 0.425 | 0.278 | 0.238 | 0.228 | 0.238 | 0.218 | 0.822 | 0.758 | 0.857 | 0.724 | 0.75 | 1.03 | 0.97 | 0.945 | 0.972 | 0.986
LCLC-103H | 0.761 | 0.697 | 0.678 | 0.663 | 0.764 | 0.373 | 0.349 | 0.314 | 0.348 | 0.347 | 0.462 | 0.453 | 0.462 | 0.436 | 0.472 | – | – | – | – | –
ABC-1 | – | – | – | – | – | 0.239 | 0.225 | 0.215 | 0.303 | 0.285 | – | – | – | – | – | – | – | – | – | –
NCI-H358 | 0.134 | 0.12 | 0.111 | 0.119 | 0.123 | 0.48 | 0.396 | 0.372 | 0.33 | 0.39 | 0.182 | 0.184 | 0.144 | 0.167 | 0.158 | – | – | – | – | –
NCI-H1563 | – | – | – | – | – | 0.682 | 0.665 | 0.669 | 0.674 | 0.619 | 0.753 | 0.632 | 0.745 | 0.682 | 0.85 | – | – | – | – | –
EBC-1 | – | – | – | – | – | – | – | – | – | – | – | – | – | – | – | 0.43 | 0.401 | 0.333 | 0.344 | 0.369
Calu-6 | – | – | – | – | – | – | – | – | – | – | – | – | – | – | – | 0.804 | 0.801 | 0.694 | 0.784 | 0.827
